The source made the active and inactive calls.
Assays:
[1] = Luminescence-based cell-based high throughput dose response assay to identify activators of the DAF-12 from the parasite S. stercoralis (ssDAF-12).; type: functional
[2] = biological target: T1, Oxysterols receptor LXR-beta (Homo sapiens, UniProt P55055); assay: LXR agonists, Gal4 luciferase reporter, dose response, counter-screen for ssDAF-12 agonist project, cell-based, luminescence, HEK293, S. stercoralis campaign (AID 720737); type: functional; conditions: read-out: IC50 (the source's name)
T1 sequence (P55055 whole entry): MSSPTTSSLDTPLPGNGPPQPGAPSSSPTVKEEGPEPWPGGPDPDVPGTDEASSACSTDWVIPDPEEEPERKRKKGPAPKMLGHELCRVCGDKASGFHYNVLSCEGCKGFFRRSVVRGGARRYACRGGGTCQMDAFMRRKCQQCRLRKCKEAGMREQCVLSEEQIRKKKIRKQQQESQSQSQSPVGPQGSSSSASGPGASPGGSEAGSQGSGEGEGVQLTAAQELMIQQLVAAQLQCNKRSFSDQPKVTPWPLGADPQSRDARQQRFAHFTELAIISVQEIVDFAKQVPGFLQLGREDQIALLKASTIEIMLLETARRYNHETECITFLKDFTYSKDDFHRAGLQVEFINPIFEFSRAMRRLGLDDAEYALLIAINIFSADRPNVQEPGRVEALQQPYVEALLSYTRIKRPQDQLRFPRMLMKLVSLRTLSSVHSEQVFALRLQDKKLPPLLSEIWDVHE

[3] = biological target: T2, Heat shock factor protein 1 (Mus musculus, UniProt P38532); assay: enhancement of HSF1-driven luciferase signal – cell-based, NIH3T3, luminescence, dose retest, confirmation (AID 435004); type: functional;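 also: stress induced by proteasome inhibitor MG132 added 30 min after compound; luciferase reporter driven by HSF1 response element in NIH3T3 cells; actives raise luminescence as potentiators of the MG132 stress response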
T2 sequence (P38532 whole entry): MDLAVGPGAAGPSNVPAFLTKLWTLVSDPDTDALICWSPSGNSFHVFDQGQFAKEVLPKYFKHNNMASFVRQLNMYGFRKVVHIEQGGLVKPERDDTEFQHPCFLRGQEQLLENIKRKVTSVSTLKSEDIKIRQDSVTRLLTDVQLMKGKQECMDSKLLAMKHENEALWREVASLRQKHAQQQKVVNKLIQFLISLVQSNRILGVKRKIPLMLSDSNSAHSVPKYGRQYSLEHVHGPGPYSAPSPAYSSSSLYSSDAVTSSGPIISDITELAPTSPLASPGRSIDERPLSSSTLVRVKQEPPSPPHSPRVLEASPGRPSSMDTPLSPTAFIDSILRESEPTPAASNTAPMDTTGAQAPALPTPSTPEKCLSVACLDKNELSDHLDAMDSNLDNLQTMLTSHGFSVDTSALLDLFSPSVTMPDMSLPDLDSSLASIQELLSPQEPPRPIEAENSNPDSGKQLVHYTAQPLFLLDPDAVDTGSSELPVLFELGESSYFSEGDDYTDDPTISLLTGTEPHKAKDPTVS

[4] = biological target: T3, Sentrin-specific protease 8 (Homo sapiens, UniProt Q96LD8); type: functional;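 also: luminescence read-out of SENP8 inhibition, dose-response confirmation following an ultra-high-throughput screen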
T3 sequence (Q96LD8 whole entry): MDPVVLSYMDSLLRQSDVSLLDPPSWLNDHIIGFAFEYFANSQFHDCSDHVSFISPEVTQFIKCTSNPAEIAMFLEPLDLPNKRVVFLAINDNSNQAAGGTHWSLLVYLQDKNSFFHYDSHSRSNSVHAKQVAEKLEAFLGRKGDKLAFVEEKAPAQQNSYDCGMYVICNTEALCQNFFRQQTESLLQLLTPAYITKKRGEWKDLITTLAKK

Caspase-3 = biological target: T4, Caspase-3 (Homo sapiens, UniProt P42574); type: functional;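 also: Dose-response selectivity test against caspase-3 for candidate inhibitors of sentrin-specific proteases (SENPs)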
T4 sequence (P42574 whole entry): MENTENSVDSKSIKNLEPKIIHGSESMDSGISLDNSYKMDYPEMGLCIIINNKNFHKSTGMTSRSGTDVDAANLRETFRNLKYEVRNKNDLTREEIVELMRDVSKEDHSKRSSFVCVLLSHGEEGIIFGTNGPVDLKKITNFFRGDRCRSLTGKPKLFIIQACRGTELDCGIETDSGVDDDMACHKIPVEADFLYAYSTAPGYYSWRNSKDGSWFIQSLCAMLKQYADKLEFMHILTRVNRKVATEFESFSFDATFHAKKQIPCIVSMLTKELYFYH

[5] = biological target: T5, Sentrin-specific protease 7 (Homo sapiens, UniProt Q9BQF6); type: functional;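 also: Luminescence-based dose-response confirmation of ultra-high-throughput screening hits, measuring inhibition of SENP7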
T5 sequence (Q9BQF6 whole entry): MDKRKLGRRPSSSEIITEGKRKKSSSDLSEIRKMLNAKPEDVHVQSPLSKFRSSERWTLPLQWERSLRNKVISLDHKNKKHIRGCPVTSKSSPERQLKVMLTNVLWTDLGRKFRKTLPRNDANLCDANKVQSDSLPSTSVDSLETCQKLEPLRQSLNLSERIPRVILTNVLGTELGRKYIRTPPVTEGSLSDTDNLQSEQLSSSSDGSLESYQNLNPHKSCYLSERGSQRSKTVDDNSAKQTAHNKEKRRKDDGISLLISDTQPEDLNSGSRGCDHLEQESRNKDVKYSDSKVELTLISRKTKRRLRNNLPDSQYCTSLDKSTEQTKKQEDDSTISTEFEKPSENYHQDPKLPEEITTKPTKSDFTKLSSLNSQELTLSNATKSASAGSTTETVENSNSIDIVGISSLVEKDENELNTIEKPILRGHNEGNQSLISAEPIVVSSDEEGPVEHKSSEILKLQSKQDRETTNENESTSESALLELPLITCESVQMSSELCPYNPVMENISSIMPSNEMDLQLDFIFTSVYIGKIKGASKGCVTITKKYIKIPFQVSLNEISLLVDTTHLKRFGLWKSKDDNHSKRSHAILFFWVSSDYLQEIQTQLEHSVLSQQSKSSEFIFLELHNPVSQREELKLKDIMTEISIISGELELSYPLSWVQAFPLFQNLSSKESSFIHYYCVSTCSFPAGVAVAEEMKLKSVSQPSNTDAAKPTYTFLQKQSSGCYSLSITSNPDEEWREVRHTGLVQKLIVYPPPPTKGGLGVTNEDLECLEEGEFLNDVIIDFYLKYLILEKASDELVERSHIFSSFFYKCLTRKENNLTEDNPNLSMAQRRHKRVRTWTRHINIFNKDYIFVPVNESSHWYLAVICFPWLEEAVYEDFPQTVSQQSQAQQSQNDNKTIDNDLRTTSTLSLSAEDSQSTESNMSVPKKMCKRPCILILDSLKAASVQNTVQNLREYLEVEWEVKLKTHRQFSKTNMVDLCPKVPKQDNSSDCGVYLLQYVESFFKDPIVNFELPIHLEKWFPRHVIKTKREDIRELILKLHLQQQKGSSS

[6] = biological target: T1, Oxysterols receptor LXR-beta; type: functional, cell-based
[7] = biological target: T6, Sentrin-specific protease 6 (Homo sapiens, UniProt Q9GZR1); type: functional;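 also: Luminescence-based dose-response confirmatory assay of SENP6 inhibition, following up an ultra-high-throughput screen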
T6 sequence (Q9GZR1 whole entry): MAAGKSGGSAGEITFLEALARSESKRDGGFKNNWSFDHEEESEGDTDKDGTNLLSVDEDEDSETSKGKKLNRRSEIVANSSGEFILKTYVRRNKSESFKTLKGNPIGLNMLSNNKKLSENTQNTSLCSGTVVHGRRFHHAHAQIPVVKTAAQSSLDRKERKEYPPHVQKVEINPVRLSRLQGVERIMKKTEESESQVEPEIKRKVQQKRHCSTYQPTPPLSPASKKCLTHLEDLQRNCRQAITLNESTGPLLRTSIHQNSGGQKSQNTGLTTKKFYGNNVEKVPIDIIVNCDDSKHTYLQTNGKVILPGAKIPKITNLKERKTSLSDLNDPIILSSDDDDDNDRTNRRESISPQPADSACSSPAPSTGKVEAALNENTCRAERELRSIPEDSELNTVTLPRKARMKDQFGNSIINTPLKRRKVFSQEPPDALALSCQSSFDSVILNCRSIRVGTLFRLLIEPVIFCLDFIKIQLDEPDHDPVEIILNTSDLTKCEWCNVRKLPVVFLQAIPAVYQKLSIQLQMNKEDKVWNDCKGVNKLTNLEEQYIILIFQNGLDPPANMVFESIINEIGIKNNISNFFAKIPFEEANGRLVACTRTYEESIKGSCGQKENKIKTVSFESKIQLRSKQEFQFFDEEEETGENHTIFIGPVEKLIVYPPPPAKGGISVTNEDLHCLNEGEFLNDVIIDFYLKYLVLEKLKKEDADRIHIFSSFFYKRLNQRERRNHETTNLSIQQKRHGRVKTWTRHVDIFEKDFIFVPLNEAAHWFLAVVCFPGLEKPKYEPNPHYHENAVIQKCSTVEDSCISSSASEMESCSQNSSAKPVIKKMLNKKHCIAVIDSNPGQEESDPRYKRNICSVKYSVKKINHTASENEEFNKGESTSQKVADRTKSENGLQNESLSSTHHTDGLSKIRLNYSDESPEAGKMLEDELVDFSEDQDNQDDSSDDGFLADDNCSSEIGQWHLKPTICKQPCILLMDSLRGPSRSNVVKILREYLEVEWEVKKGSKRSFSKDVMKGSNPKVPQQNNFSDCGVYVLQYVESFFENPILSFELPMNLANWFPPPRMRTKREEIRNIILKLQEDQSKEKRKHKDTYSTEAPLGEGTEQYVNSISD

[8] = glucagon-like peptide-1 release potency in STC-1, concentration-response, half-maximal inhibitory concentration in the STC-1 line (AID 1117345); type: functional, cell-based
[9] = Potency on glucagon-like peptide 1 release, dose-response in NCI-H716 cell line, half maximal inhibitory concentration (AID 1117344); type: functional, cell-based
[10] = Dd2 malaria parasite growth inhibition potency – SYBR Green, dry powder samples, dose response (AID 1159566); type: functional, cell-based;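 also: potency for growth inhibition with lower SYBR green DNA signal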
[11] = toxicity to human HepG2 hepatoma cells – cell-based, plate reader, dry powder samples, cytotoxicity control, dose response (AID 1159569); type: functional;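 also: inhibitor potency with signal falling toward the positive control level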
[12] = P. falciparum Dd2 growth inhibitors, dose response, SYBR Green, cherry-picked samples (AID 1159567); type: functional, cell-based
[13] = growth inhibition of yeast DHODH-expressing 3D7 parasites – SYBR Green, dry powder samples, dose response (AID 1159570); type: functional, cell-based;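 also: parasite growth measured after 72 hours of compound exposure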
[14] = growth inhibition of PfATP4-mutant resistant parasites – NITD609-resistant line, SYBR Green, dry powder, dose response (AID 1159571); type: functional, cell-based;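 also: parasites synchronized at ring stage by sorbitol before testing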
[15] = biological target: T7, Ubiquitin-conjugating enzyme E2 N (Homo sapiens, UniProt P61088); type: functional;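 also: Dose-response confirmation in a TR-FRET assay detecting UBC13-driven polyubiquitin chain formation, inhibition measured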
T7 sequence (P61088 whole entry): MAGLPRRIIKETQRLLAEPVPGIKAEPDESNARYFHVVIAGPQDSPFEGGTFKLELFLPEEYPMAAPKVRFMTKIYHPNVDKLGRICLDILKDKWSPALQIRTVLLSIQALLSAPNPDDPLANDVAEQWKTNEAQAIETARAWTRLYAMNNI

O=C(Nc1ccccn1)c1ccc2ccccc2n1
IC50 [1]: > 67.5 µM (inactive) | EC50 [2]: > 67.5 µM (inactive) | EC50 [3]: > 260 µM (inactive)

Cc1ccc(-c2cc(-c3ccccc3)no2)cc1
IC50 [4]: 23.7 µM (active) | EC50 (cells): > 67.5 µM (inactive) | IC50 (Caspase-3): 21.7 µM (active) | IC50 [5]: 14.3 µM (active) | EC50 [6]: > 67.5 µM (inactive) | IC50 [7]: 18.6 µM (active)

Cc1ccc(C(=O)Nc2ccc3c(c2)OCO3)cc1
IC50 [1]: > 67.5 µM (inactive) | EC50 [2]: > 67.5 µM (inactive)

CNCC(O)Cn1c2c(c3ccccc31)CCCC2 (stereo not drawn)
IC50 [1]: > 67.6 µM (inactive) | EC50 [2]: > 67.6 µM (inactive)

O=C(Nc1ccc(S(=O)(=O)N2CCOCC2)cc1)c1cc(Cl)ccc1NS(=O)(=O)c1ccc(Cl)s1
IC50 [8]: > 40 µM (inactive) | IC50 [9]: > 40 µM (inactive)

CC(C)(C)[S@+]([O-])N1Cc2cc(C(=O)NCCN3CCCCC3)nc(-c3cccc(-c4cccc(C#N)c4)c3)c2[C@@H]1CCO
AC50 [10]: 0.643 µM (active) | AC50 [11]: 91.7 µM (active) | AC50 [12]: 0.606 µM (active) | AC50 [13]: 0.629 µM (active) | AC50 [14]: 1.8 µM (active)

O=C(c1cccnc1)N1CC(=O)N2[C@H](C1)[C@@H](c1ccc(-c3cccnc3)cc1)[C@@H]2CO
AC50 [10]: 0.553 µM (active) | AC50 [11]: > 100 µM (inactive) | AC50 [12]: 0.497 µM (active) | AC50 [13]: 0.938 µM (active) | AC50 [14]: 0.693 µM (active)

CN(C(=O)CN(CCO)CC(=O)N(C)C(C)(C)Cc1ccccc1)C(C)(C)Cc1ccccc1 [OXETHAZAINE]
IC50 [15]: > 20 µM (inactive) | IC50 [8]: > 40 µM (inactive) | IC50 [9]: 25.1 µM (inactive)
